Measurements: patent publication US9409952B2, “Peptide-compound cyclization method” (Chugai Seiyaku Kabushiki Kaisha, priority 2011, dated 2016)
Starred links: 1 amine or outer side, 2 acyl side, 3 side chain; linkers in the order of their positions; H or OH if unused. Positions of bridges follow the written chain, without caps; N, C: chain ends. Non-standard residues stand in square brackets, D forms with d. Residues, ends and D or L forms follow the SMILES beside them. ξ: configuration not given here. *: point of attachment. NMeF = CN[C@@H](Cc1ccccc1)C(=O)O; NMeβAla = CN(CCC(=O)[*:2])[*:1]; NMeL = CN[C@@H](CC(C)C)C(=O)O; NMeV = CN[C@H](C(=O)O)C(C)C; NMeA = CN[C@@H](C)C(=O)O; Piperidide = C1CCN(*)CC1; dNMeA = CN[C@H](C)C(=O)O; ξF = NC(Cc1ccccc1)C(=O)O; Sar = CNCC(=O)O; tBu = CC(C)(C)*

Experiment: Metabolic stability in human hepatic microsome
Type: in vitro ADME
Settings: human, microsomes, pH 7.4, CL NADPH(+)

`CC[C@H](C)[C@@H]1NC(=O)[C@@H]2CCCN2C(=O)CNC(=O)[C@H](COC(C)(C)C)NC(=O)[C@H](CC(C)C)N(C)C(=O)C(Cc2ccccc2)NC(=O)CN(C)C(=O)C[C@@H](C(=O)N2CCCCC2)NC(=O)[C@H](CC(C)C)N(C)C(=O)[C@H](Cc2ccccc2)NC(=O)[C@H]([C@@H](C)O)NC(=O)[C@H](C)N(C)C1=O` (stereo partly drawn) [DP-517] ([Sar][ξF][NMeL]S(tBu)GPI[NMeA]TF[NMeL]D-Piperidide; lactam N-12) showed a microsomal CLint at 1 uM of 31 µL/min/mg.

Same assay, conditions: microsomes, pH 7.4; human hepatic microsome, NADPH(+); read-out: CL NADPH(+)

Compared with `CC[C@H](C)[C@@H]1NC(=O)[C@H](C)NC(=O)C[C@@H](C(=O)N2CCCCC2)NC(=O)[C@H](Cc2ccccc2)NC(=O)[C@H](C)NC(=O)[C@H]([C@@H](C)O)NC(=O)[C@H](Cc2ccccc2)NC(=O)[C@H](CC(C)C)N(C)C(=O)[C@H](CC(C)C)NC(=O)[C@H](Cc2ccccc2)NC(=O)[C@H](CC(C)C)NC1=O` [DP-320] (AILFL[NMeL]FTAFD-Piperidide; lactam N-11), `CC(C)C[C@@H]1NC(=O)[C@H](Cc2ccccc2)NC(=O)[C@H](CC(C)C)N(C)C(=O)[C@H](Cc2ccccc2)NC(=O)[C@@H](C)N(C)C(=O)C[C@@H](C(=O)N2CCCCC2)NC(=O)[C@H](Cc2ccccc2)N(C)C(=O)CNC(=O)[C@H]([C@@H](C)O)NC(=O)[C@H](CC(C)C)NC1=O` [DP-486] ([dNMeA]F[NMeL]FLLTG[NMeF]D-Piperidide; lactam N-10) is 2.4-fold higher in microsomal CLint at 1 uM: 36 µL/min/mg for the first, 87 µL/min/mg for the second.

Going from `CC[C@H](C)[C@@H]1NC(=O)[C@H](CC(C)C)N(C)C(=O)[C@H](Cc2ccccc2)NC(=O)[C@H](CC(C)C)N(C)C(=O)[C@H](CC(C)C)NC(=O)[C@H](Cc2ccccc2)NC(=O)[C@H]([C@@H](C)O)NC(=O)[C@H](C)N(C)C(=O)[C@H](CC(C)C)NC(=O)CCN(C)C(=O)C[C@@H](C(=O)N2CCCCC2)NC1=O` [DP-325] ([NMeβAla]L[NMeA]TFL[NMeL]F[NMeL]ID-Piperidide; lactam N-11) to `CC[C@H](C)[C@@H]1NC(=O)[C@H](C(C)C)N(C)C(=O)[C@H](C)N(C)C(=O)C[C@@H](C(=O)N2CCCCC2)NC(=O)[C@H](CC(C)C)NC(=O)[C@H](Cc2ccccc2)N(C)C(=O)[C@H](CC(C)C)N(C)C(=O)[C@H](CC(C)C)NC(=O)[C@H]([C@@H](C)O)NC(=O)[C@H](Cc2ccccc2)NC1=O` [DP-488] ([NMeA][NMeV]IFTL[NMeL][NMeF]LD-Piperidide; lactam N-10), the microsomal CLint at 1 uM rises from 99 µL/min/mg to 261 µL/min/mg (2.6-fold).

Compared with `CC(C)C[C@@H]1NC(=O)CN(C)C(=O)[C@H](C)NC(=O)[C@H]([C@@H](C)O)NC(=O)[C@@H](C)N(C)C(=O)C[C@@H](C(=O)N2CCCCC2)NC(=O)[C@H](CC(C)C)N(C)C(=O)[C@H](CC(C)C)NC(=O)[C@H](C(C)C)N(C)C(=O)[C@H](CC(C)C)NC(=O)[C@H](Cc2ccccc2)NC1=O` [DP-328] ([dNMeA]TA[Sar]LFL[NMeV]L[NMeL]D-Piperidide; lactam N-11), `CC(C)C[C@@H]1NC(=O)[C@H](Cc2ccccc2)N(C)C(=O)[C@H](C)N(C)C(=O)C[C@@H](C(=O)N2CCCCC2)NC(=O)[C@H]([C@@H](C)O)NC(=O)[C@H](CC(C)C)N(C)C(=O)[C@H](Cc2ccccc2)NC(=O)[C@H](CC(C)C)N(C)C(=O)[C@H](CC(C)C)N(C)C1=O` [DP-494] ([NMeA][NMeF]L[NMeL][NMeL]F[NMeL]TD-Piperidide; lactam N-9) is 10-fold higher in microsomal CLint at 1 uM: 32 µL/min/mg for the first, 330 µL/min/mg for the second.

Work on `CC[C@H](C)[C@@H]1NC(=O)[C@H](C(C)C)N(C)C(=O)[C@H](Cc2ccccc2)N(C)C(=O)[C@H](Cc2ccccc2)NC(=O)[C@H](CC(C)C)N(C)C(=O)[C@H](C)N(C)C(=O)[C@H]([C@@H](C)O)NC(=O)[C@H](C)N(C)C(=O)C[C@@H](C(=O)N2CCCCC2)NC(=O)[C@H](CC(C)C)N(C)C1=O` [DP-333] ([NMeA]T[NMeA][NMeL]F[NMeF][NMeV]I[NMeL]D-Piperidide; lactam N-10) yielded a microsomal CLint at 1 uM of 157 µL/min/mg.
